Measured values as given in patent publication US20170022201A1, “MACROCYLIC PYRIDINE DERIVATIVES” (Janssen Pharmaceutica NV, priority 2014, published 2017).

These compounds were tested against PIK3C3 lipid kinase (Homo sapiens, UniProt Q8NEB9) (assay: Biochemical Vps34 lipid kinase assay (ADP-Glo)). Conditions: 1 h, single dose 1 μM; residual activity compared to control (DMSO); 20 μM ATP; read-out: VPS34_1microM_%ofcntrl.
Method: A non-radiometric kinase assay (ADP-Glo™ Assay, Promega, Madison, Wi, USA) was used for measuring the kinase activity of the PIK3C3 lipid kinase. All kinase assays were performed in 96-well half-area microtiter plates in a 25 μl reaction volume. The reaction cocktail was pipetted in 3 steps in the following order: • 10 μl of ATP solution (in assay buffer, see below) • 5 μl of test sample in 5% DMSO 10 μl of enzyme/substrate mixture
All lipid kinase assays contained 50 mM HEPES (4-(2-hydroxyethyl)-1-piperazineethanesulfonic acid)—NaOH, pH 7.5, 1 mM EGTA ((ethylene glycol tetraacetic acid), 100 mM NaCl, 0.03% CHAPS (3-[(3-Cholamidopropyl) dimethylammonio]-1-propanesulfonate), 2 mM DTT (Dithiothreitol), 20 μM ATP (corresponding to the apparent ATP-Km), kinase (7.6 nM) and substrate (50 μM). The assay for PIK3C3 additionally contained 3 mM MnCl2.
The reaction cocktails were incubated at 30° C. for 60 minutes. The reaction was stopped with 25 μl ADP-Glo™ reagent per well. Plates were incubated for 40 minutes at room temperature, followed by addition of 50 μl kinase detection reagent per well and incubation for 60 minutes at room temperature. Signal was determined with a microplate luminescence reader (Victor, Perkin Elmer). The assay was either performed using a single dose of compound (1 μM final concentration in the assay reaction) with resulting data expressed as residual activity compared to control (DMSO), or using a serial (half-log) dilution of compounds starting at 10 μM and down to 0.3 nM (final concentrations in the assay) with data expressed as the pIC50.

Chain of PIK3C3 lipid kinase (Q8NEB9 whole entry): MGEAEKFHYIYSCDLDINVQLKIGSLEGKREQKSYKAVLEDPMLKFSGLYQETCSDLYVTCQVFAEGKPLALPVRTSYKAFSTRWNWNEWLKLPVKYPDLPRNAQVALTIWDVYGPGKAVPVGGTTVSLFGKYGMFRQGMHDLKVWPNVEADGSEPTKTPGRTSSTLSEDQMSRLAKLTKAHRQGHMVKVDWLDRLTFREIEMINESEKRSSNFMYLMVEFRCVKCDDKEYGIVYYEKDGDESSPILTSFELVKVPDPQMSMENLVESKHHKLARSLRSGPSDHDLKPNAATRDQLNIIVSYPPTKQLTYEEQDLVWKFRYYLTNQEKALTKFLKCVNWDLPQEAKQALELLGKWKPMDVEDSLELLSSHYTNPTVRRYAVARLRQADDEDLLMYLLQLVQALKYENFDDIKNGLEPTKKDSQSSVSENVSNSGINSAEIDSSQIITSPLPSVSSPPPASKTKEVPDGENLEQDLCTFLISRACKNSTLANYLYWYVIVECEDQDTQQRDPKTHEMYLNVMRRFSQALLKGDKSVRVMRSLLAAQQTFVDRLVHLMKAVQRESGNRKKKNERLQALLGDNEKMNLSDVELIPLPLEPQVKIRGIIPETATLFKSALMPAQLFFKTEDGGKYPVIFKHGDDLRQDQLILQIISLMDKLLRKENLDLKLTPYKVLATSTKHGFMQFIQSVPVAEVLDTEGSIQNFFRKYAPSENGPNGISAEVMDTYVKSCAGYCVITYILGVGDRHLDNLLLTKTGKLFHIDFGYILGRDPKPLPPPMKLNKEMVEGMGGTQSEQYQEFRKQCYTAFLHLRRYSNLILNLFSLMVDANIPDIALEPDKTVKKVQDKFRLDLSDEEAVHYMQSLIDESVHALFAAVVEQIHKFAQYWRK

Row | remaining activity at 1 µM | Compound
1 | 15.3% | O=C1NCCCNc2ncc(cn2)-c2ccnc(c2)Nc2cccc(c2)CN2CCN(CC2)C1CO (single isomer, unassigned) [Compound 3]
2 | 22.4% | COCC1C(=O)NCCCNc2ncc(cn2)-c2ccnc(c2)Nc2cccc(c2)CN2CCN1CC2 (single isomer, unassigned) [Compound 5]
3 | 4.67% | O=C1CN2CC3CCC2CN3Cc2cccc(c2)Nc2cc(ccn2)-c2cnc(nc2)NCCCN1 (single isomer, unassigned) [Compound 26]
4 | 70.6% | COC(=O)C1CCNC(=O)CN2CCN(CC2)Cc2cccc(c2)Nc2cc(ccn2)-c2cnc(nc2)N1 (single isomer, unassigned) [Compound 118]
5 | 65.5% | CNC(=O)C1CCNC(=O)CN2CCN(CC2)Cc2cccc(c2)Nc2cc(ccn2)-c2cnc(nc2)N1 (single isomer, unassigned) [Compound 124]
6 | 40% | O=C1CN2CCN(CC2)Cc2cccc(c2)Nc2cc(ccn2)-c2ccc(nc2)N2CCCC2CCN1 (single isomer, unassigned) [Compound 142]

Same assay, conditions: serial dilution 10 μM to 0.3 nM; 20 μM ATP; pIC50 = -log IC50 (M)

Row | IC50 | Compound
7 | 5.5e-07 M | O=C1NCCCNc2ncc(cn2)-c2ccnc(c2)Nc2cccc(c2)CN2CCN(CC2)C1CO (single isomer, unassigned) [Compound 2]
8 | 2.29e-07 M | O=C1NCCCNc2ncc(cn2)-c2ccnc(c2)Nc2cccc(c2)CN2CCN(CC2)C1CO (single isomer, unassigned) [Compound 3]
9 | 4.47e-07 M | COCC1C(=O)NCCCNc2ncc(cn2)-c2ccnc(c2)Nc2cccc(c2)CN2CCN1CC2 (single isomer, unassigned) [Compound 5]
10 | 7.59e-07 M | COCC1C(=O)NCCCNc2ncc(cn2)-c2ccnc(c2)Nc2cccc(c2)CN2CCN1CC2 (single isomer, unassigned) [Compound 6]
11 | 6.61e-08 M | O=C1CN2CC3CCC2CN3Cc2cccc(c2)Nc2cc(ccn2)-c2cnc(nc2)NCCCN1 (single isomer, unassigned) [Compound 26]

Each compound was assayed against T1, EF2K (Homo sapiens, UniProt O00418) (assay: Biochemical EF2K lysate-based kinase assay (AlphaLISA p-eEF2 Thr56)). Conditions: LN-229 cell lysates, 10 mM ATP, pH 6.6; pIC50 = -log IC50 (M); read-out: eEF2K_C_alphalisa pIC50 (converted).
T1 construct: host or cells: LN-229 glioblastoma cell lysate
T1 sequence (O00418 1-725): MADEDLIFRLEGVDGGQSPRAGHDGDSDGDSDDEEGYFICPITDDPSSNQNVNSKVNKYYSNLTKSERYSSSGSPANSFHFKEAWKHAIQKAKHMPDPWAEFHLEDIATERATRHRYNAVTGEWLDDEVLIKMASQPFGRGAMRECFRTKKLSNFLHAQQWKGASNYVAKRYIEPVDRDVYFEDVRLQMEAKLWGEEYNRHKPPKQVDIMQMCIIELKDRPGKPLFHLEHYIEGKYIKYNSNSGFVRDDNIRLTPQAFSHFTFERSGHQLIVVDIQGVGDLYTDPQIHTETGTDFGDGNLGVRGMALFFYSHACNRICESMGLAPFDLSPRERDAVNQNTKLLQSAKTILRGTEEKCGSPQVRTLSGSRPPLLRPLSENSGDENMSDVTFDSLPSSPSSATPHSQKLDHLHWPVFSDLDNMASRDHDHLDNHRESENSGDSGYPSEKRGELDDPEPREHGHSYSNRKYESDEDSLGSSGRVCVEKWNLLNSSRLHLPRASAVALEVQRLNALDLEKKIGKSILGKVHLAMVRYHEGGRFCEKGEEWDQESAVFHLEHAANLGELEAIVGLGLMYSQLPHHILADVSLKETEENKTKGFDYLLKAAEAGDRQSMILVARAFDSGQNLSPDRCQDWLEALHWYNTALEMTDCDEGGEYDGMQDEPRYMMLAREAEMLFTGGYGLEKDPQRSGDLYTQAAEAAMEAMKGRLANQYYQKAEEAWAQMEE
Source text: LN-229 cells were purchased from ATCC (CRL-2611); these are glioblastoma cells. Cell lysates from LN229 were used in this kinase assay to provide both the kinase and the substrate (EF2). The AlphaLISA p-eEF2 (Thr56) detection assay was developed using a sandwich assay format with two specific antibodies recognizing different epitopes of the target, including one antibody against the phosphorylation site of interest. One anti-eEF2 antibody was conjugated onto AlphaLISA Acceptor beads, while the second antibody was biotinylated and captured by streptavidin coated Donor beads.
Compound was mixed with LN-229 cell lysates in the presence of a kinase buffer (e.g. HEPES) at a pH of 6.6, containing 10 mM Mg^2+ (e.g. magnesium acetate) and 10 mM adenosine-tri-phosphate (ATP) and incubated at room temperature for 15 minutes. The kinase reaction was stopped with excess ethylenediaminetetraacetic acid disodium salt and the biotinylated-anti phospho eEF2 antibody (3 nM) was added for 1 hour. Then the anti-EF2 acceptor beads (10 μg/ml) as well as the streptavidin coated donor beads (20 μg/ml) were added for 1 hour, and the AlphaLISA signal was measured in an Envision instrument once, left overnight, and measured again for the final read.

Row | IC50 | Compound
12 | 4.79e-08 M | O=C1NCCCNc2ncc(cn2)-c2ccnc(c2)Nc2cccc(c2)CN2CCN(CC2)C1CO (single isomer, unassigned) [Compound 2]
13 | 1.55e-07 M | O=C1NCCCNc2ncc(cn2)-c2ccnc(c2)Nc2cccc(c2)CN2CCN(CC2)C1CO (single isomer, unassigned) [Compound 3]
14 | 1.12e-07 M | COCC1C(=O)NCCCNc2ncc(cn2)-c2ccnc(c2)Nc2cccc(c2)CN2CCN1CC2 (single isomer, unassigned) [Compound 5]
15 | 4.47e-08 M | COCC1C(=O)NCCCNc2ncc(cn2)-c2ccnc(c2)Nc2cccc(c2)CN2CCN1CC2 (single isomer, unassigned) [Compound 6]
16 | 1.07e-06 M | O=C1CN2CC3CCC2CN3Cc2cccc(c2)Nc2cc(ccn2)-c2cnc(nc2)NCCCN1 (single isomer, unassigned) [Compound 26]
17 | 3.09e-07 M | COC(=O)C1CCNC(=O)CN2CCN(CC2)Cc2cccc(c2)Nc2cc(ccn2)-c2cnc(nc2)N1 (single isomer, unassigned) [Compound 118]
18 | 3.98e-07 M | CNC(=O)C1CCNC(=O)CN2CCN(CC2)Cc2cccc(c2)Nc2cc(ccn2)-c2cnc(nc2)N1 (single isomer, unassigned) [Compound 124]
19 | 3.55e-08 M | O=C1CN2CCN(CC2)Cc2cccc(c2)Nc2cc(ccn2)-c2ccc(nc2)N2CCCC2CCN1 (single isomer, unassigned) [Compound 142]

What follows are compounds tested against T2, eEF2K (Homo sapiens, UniProt O00418) (assay: EF2K cell-based assay (P-EF2 AlphaLISA, 2-deoxyglucose stimulated MCF10A cells)). Conditions: 2.5 mM 2-deoxyglucose 4 h, phosphorylation of EF2 at Thr 56, pIC50 = -log IC50 (M).
T2 construct: in the immortalized epithelial breast cell lines, MCF10A; host or cells: MCF10A immortalized breast epithelial cells
T2 sequence (O00418 1-725): T1 sequence (O00418 1-725)
Method: In this assay, 2.5 mM 2-deoxyglucose was used to deplete intracellular ATP and activate 5′ adenosine monophosphate-activated protein kinase (AMPK) in the immortalized epithelial breast cell lines, MCF10A. MCF 10A cells were purchased from ATCC (CRL-10317).
MCF10A cells are seeded at a density of 1.25×10^5 Cells/ml at 100 μl/well in a 96-well plate and incubated for 24 hours (37° C., 5% CO2). Compound is added for 1 hour, and cell are stimulated with 2.5 mM of 2-deoxy-glucose for 4 hours. Medium is then removed, and cells are lysed in an ice-cold buffer M-PER (Thermo Scientific, 78501), containing protease and phosphatase inhibitors. P-EF2 levels are determined in these lysates using the P-EF2 AlphaLISA described above.

Row | eEF2K_C_PThr56 pIC50 | Compound
20 | <5 | O=C1CN2CC3CCC2CN3Cc2cccc(c2)Nc2cc(ccn2)-c2cnc(nc2)NCCCN1 (single isomer, unassigned) [Compound 26]

Same assay, conditions: 2.5 mM 2-deoxyglucose 4 h, phosphorylation of EF2 at Thr 56, pIC50 = -log IC50 (M), read-out: eEF2K_C_PThr56 pIC50 (converted)

Row | IC50 | Compound
21 | ~2.51e-06 M | O=C1NCCCNc2ncc(cn2)-c2ccnc(c2)Nc2cccc(c2)CN2CCN(CC2)C1CO (single isomer, unassigned) [Compound 2]
22 | 5.75e-06 M | O=C1NCCCNc2ncc(cn2)-c2ccnc(c2)Nc2cccc(c2)CN2CCN(CC2)C1CO (single isomer, unassigned) [Compound 3]
23 | 2.51e-06 M | COCC1C(=O)NCCCNc2ncc(cn2)-c2ccnc(c2)Nc2cccc(c2)CN2CCN1CC2 (single isomer, unassigned) [Compound 5]
24 | 1.12e-06 M | COCC1C(=O)NCCCNc2ncc(cn2)-c2ccnc(c2)Nc2cccc(c2)CN2CCN1CC2 (single isomer, unassigned) [Compound 6]
25 | 1.55e-05 M | COC(=O)C1CCNC(=O)CN2CCN(CC2)Cc2cccc(c2)Nc2cc(ccn2)-c2cnc(nc2)N1 (single isomer, unassigned) [Compound 118]
26 | ~2.51e-05 M | CNC(=O)C1CCNC(=O)CN2CCN(CC2)Cc2cccc(c2)Nc2cc(ccn2)-c2cnc(nc2)N1 (single isomer, unassigned) [Compound 124]
27 | 1.58e-06 M | O=C1CN2CCN(CC2)Cc2cccc(c2)Nc2cc(ccn2)-c2ccc(nc2)N2CCCC2CCN1 (single isomer, unassigned) [Compound 142]
